System: SARS-CoV-2
Experiment: microbe, parasite or virus in culture
Conditions: Severe acute respiratory syndrome coronavirus 2, Vero C1008, 48 h

SMILES | IC50 [µM] | IC50 (read-out: pIC50 (converted)) [µM]
Cc1cc(=O)oc2c(O)c(O)ccc12 [4-METHYLDAPHNETIN] | > 20 | > 20
Cc1cc(=O)oc2cc(O)c(O)cc12 [4-METHYLESCULETIN] | > 20 | > 20
Cc1cc(=O)oc2cc(O)cc(O)c12 [5,7-DIHYDROXY-4-METHYLCOUMARIN] | > 20 | > 20
O=C(O)c1cc2cc(F)ccc2[nH]1 [5-FLUOROINDOLE-2-CARBOXYLIC ACID] | > 20 | > 20
O=c1cc(-c2ccccc2)oc2cccc(O)c12 [5-HYDROXYFLAVONE] | > 20 | > 20
COc1ccc(-c2cc(=O)c3cc(OC)ccc3o2)cc1 [6,4'-DIMETHOXYFLAVONE] | > 20 | > 20
c1cnc2c(c1)CNC2 [6,7-DIHYDRO-5H-PYRROLO[3,4-B]PYRIDINE] | > 20 | > 20
NC(=O)c1ccc(N)nc1 [6-AMINONICOTINAMIDE] | > 20 | > 20
c1ccc(CNc2ncnc3[nH]cnc23)cc1 [6-BENZYLAMINOPURINE] | > 20 | > 20
[N-]=[N+]=CC(=O)CC[C@H](N)C(=O)O [6-DIAZO-5-OXO-L-NORLEUCINE] | > 20 | > 20
Nc1nc(OCc2ccccc2)c2nc[nH]c2n1 [6-O-BENZYLGUANINE] | > 20 | > 20
O=c1cc(-c2ccccc2)oc2c(O)c(O)ccc12 [7,8-DIHYDROXYFLAVONE] | > 20 | > 20
CCc1c2c(nc3ccc(O)cc13)-c1cc3c(c(=O)n1C2)COC(=O)[C@]3(O)CC [7-ETHYL-10-HYDROXYCAMPTOTHECIN] | > 20 | > 20
O=c1cc(-c2ccccc2)oc2cc(O)ccc12 [7-HYDROXYFLAVONE] | > 20 | > 20
Cn1cnc2[nH]c(=O)[nH]c(=O)c21 [7-METHYLXANTHINE] | > 20 | > 20
O=[N+]([O-])c1cccc2cn[nH]c12 [7-NITROINDAZOLE] | > 20 | > 20
Cn1c(=O)c2nc(C3CCCC3)[nH]c2n(C)c1=O [8-CYCLOPENTYLTHEOPHYLLINE] | > 20 | > 20

SMILES | IC50 [µM] | IC50 (read-out: pIC50 (converted)) [µM]
CC(C)(O)CC[C@@H](O)[C@](C)(O)[C@H]1CC[C@@]2(O)C3=CC(=O)[C@@H]4C[C@@H](O)[C@@H](O)C[C@]4(C)[C@H]3CC[C@]12C [20-HYDROXYECDYSONE] | > 20 | > 20
C[C@@H](N)[C@@H](O)c1ccccc1 [(1S,2R)-PHENYLPROPANOLAMINE] | > 20 | > 20
CC(C)=CCN1CC[C@]2(C)c3cc(O)ccc3C[C@H]1[C@H]2C [(+)-PENTAZOCINE] | > 20 | > 20
N[C@H]1C[C@@H]1c1ccccc1 [(+)-TRANYLCYPROMINE] | > 20 | > 20
N[C@H](CO)C(=O)O [(D)-SERINE] | > 20 | > 20
O=C(O)[C@H]1CCCNC1 [(S)-NIPECOTIC ACID] | > 20 | > 20
O[C@@H](c1cc(C(F)(F)F)nc2c(C(F)(F)F)cccc12)[C@H]1CCCCN1 [(S,R)-MEFLOQUINE] | > 20 | > 20
CC(C)(O)CC(=O)O [.BETA.-HYDROXYISOVALERIC ACID] | > 20 | > 20
Nc1nc(NC2CC2)c2ncn([C@H]3C=C[C@@H](CO)C3)c2n1 [ABACAVIR] | > 20 | > 20
O=C(NCc1ccncc1)C12CC3CC(C1)CC(c1ccc(Cl)cc1)(C3)C2 [ABC-294640] | > 20 | > 20
CN(C)Cc1c(C(=O)NCCOc2ccc(C(=O)NO)cc2)oc2ccccc12 [ABEXINOSTAT] | > 20 | > 20
C[C@]12CC[C@H](O)CC1=CC[C@@H]1[C@@H]2CC[C@]2(C)C(c3cccnc3)=CC[C@@H]12 [ABIRATERONE] | > 20 | > 20
C=CC(=O)Nc1cccc(Oc2nc(Nc3ccc(N4CCN(C)CC4)c(F)c3)nc3[nH]ccc23)c1 [ABIVERTINIB] | > 20 | > 20
CCCc1c(OCCCCCOc2cc3c(cc2C(C)=O)CCC(C(=O)O)O3)ccc(C(C)=O)c1O (stereo not drawn) [ABLUKAST] | > 20 | > 20
CCCS(=O)(=O)N[C@H]1C[C@@H](N(C)c2ncnc3[nH]ccc23)C1 [ABROCITINIB] | > 20 | > 20
CN(C)CC[C@H](CSc1ccccc1)Nc1ccc(S(=O)(=O)NC(=O)c2ccc(N3CCN(Cc4ccccc4-c4ccc(Cl)cc4)CC3)cc2)cc1[N+](=O)[O-] [ABT 737] | > 20 | > 20
c1ccc(N2CCN(Cc3nc4ccccc4[nH]3)CC2)nc1 [ABT-724] | > 20 | > 20

From ChEMBL document CHEMBL4651402, “Screening of ~5500 FDA-approved drugs and clinical candidates for anti-SARS-CoV-2 activity” (2021)
